Laboratory results taken from the NIST ThermoML archive (doi:10.1007/s10765-010-0768-y).
± gives the expanded uncertainty stated by the source.

Assay: xn = mol fraction of the nth substance listed
Settings: 101 kPa, Liquid, Pycnometric method

C=CC(=O)OCCCC [butyl 2-propenoate] + Cc1cc(C)cc(C)c1
mass density [kg/m3]
Settings	288.15 K	293.15 K	298.15 K	303.15 K	308.15 K	313.15 K	318.15 K
x1 = 0.0724	871.63 ± 0.24	867.64 ± 0.23	863.65 ± 0.24	859.66 ± 0.25	855.67 ± 0.26	851.68 ± 0.27	847.69 ± 0.28
x1 = 0.1414	873.88 ± 0.25	869.82 ± 0.23	865.76 ± 0.24	861.7 ± 0.25	857.64 ± 0.26	853.58 ± 0.27	849.52 ± 0.28
x1 = 0.2135	876.24 ± 0.25	872.11 ± 0.23	867.99 ± 0.24	863.87 ± 0.25	859.75 ± 0.26	855.63 ± 0.27	851.51 ± 0.28
x1 = 0.2846	878.6 ± 0.25	874.42 ± 0.24	870.24 ± 0.25	866.06 ± 0.26	861.88 ± 0.27	857.71 ± 0.28	853.54 ± 0.29
x1 = 0.3512	880.84 ± 0.25	876.6 ± 0.24	872.37 ± 0.25	868.14 ± 0.26	863.91 ± 0.27	859.68 ± 0.28	855.45 ± 0.29
x1 = 0.4223	883.26 ± 0.25	878.97 ± 0.24	874.68 ± 0.25	870.39 ± 0.26	866.1 ± 0.27	861.81 ± 0.28	857.53 ± 0.29
x1 = 0.4998	885.94 ± 0.26	881.58 ± 0.24	877.22 ± 0.25	872.87 ± 0.26	868.52 ± 0.27	864.17 ± 0.28	859.82 ± 0.29
x1 = 0.5724	888.47 ± 0.26	884.05 ± 0.25	879.63 ± 0.26	875.21 ± 0.27	870.8 ± 0.27	866.39 ± 0.28	861.98 ± 0.29
x1 = 0.6578	891.46 ± 0.26	886.97 ± 0.25	882.48 ± 0.26	877.99 ± 0.27	873.5 ± 0.28	869.02 ± 0.29	864.54 ± 0.3
x1 = 0.7131	893.41 ± 0.26	888.87 ± 0.25	884.33 ± 0.26	879.8 ± 0.27	875.27 ± 0.28	870.74 ± 0.29	866.21 ± 0.3
x1 = 0.7823	895.86 ± 0.27	891.26 ± 0.25	886.66 ± 0.26	882.07 ± 0.27	877.48 ± 0.28	872.89 ± 0.29	868.3 ± 0.3
x1 = 0.8563	898.49 ± 0.27	893.83 ± 0.26	889.17 ± 0.26	884.52 ± 0.27	879.87 ± 0.28	875.22 ± 0.29	870.57 ± 0.3
x1 = 0.9295	901.09 ± 0.27	896.38 ± 0.26	891.67 ± 0.27	886.96 ± 0.28	882.26 ± 0.29	877.56 ± 0.3	872.86 ± 0.31
x1 = 1	903.6 ± 0.27	898.85 ± 0.26	894.1 ± 0.27	889.35 ± 0.28	884.6 ± 0.29	879.85 ± 0.3	875.1 ± 0.31

C=CC(=O)OCCCC [butyl 2-propenoate] + Cc1ccccc1C
mass density [kg/m3]
Settings	288.15 K	293.15 K	298.15 K	303.15 K	308.15 K	313.15 K	318.15 K
x1 = 0.0685	885.81 ± 0.23	881.5 ± 0.21	877.19 ± 0.22	872.88 ± 0.23	868.57 ± 0.24	864.26 ± 0.25	859.95 ± 0.26
x1 = 0.1306	887.32 ± 0.23	882.97 ± 0.22	878.62 ± 0.23	874.27 ± 0.24	869.92 ± 0.25	865.57 ± 0.26	861.22 ± 0.27
x1 = 0.2018	889 ± 0.23	884.6 ± 0.22	880.2 ± 0.23	875.8 ± 0.24	871.41 ± 0.25	867.02 ± 0.26	862.63 ± 0.27
x1 = 0.2738	890.63 ± 0.23	886.19 ± 0.22	881.75 ± 0.23	877.31 ± 0.24	872.87 ± 0.25	868.44 ± 0.26	864.01 ± 0.27
x1 = 0.3654	892.61 ± 0.24	888.12 ± 0.23	883.63 ± 0.24	879.14 ± 0.25	874.65 ± 0.26	870.17 ± 0.27	865.69 ± 0.28
x1 = 0.4331	894.01 ± 0.24	889.49 ± 0.23	884.97 ± 0.24	880.45 ± 0.25	875.93 ± 0.26	871.41 ± 0.27	866.89 ± 0.28
x1 = 0.5072	895.49 ± 0.24	890.93 ± 0.23	886.37 ± 0.24	881.81 ± 0.25	877.25 ± 0.26	872.7 ± 0.27	868.14 ± 0.28
x1 = 0.589	897.05 ± 0.25	892.45 ± 0.24	887.85 ± 0.25	883.25 ± 0.26	878.65 ± 0.27	874.06 ± 0.28	869.47 ± 0.29
x1 = 0.6522	898.2 ± 0.25	893.57 ± 0.24	888.94 ± 0.25	884.31 ± 0.26	879.68 ± 0.27	875.06 ± 0.28	870.44 ± 0.29
x1 = 0.7283	899.51 ± 0.26	894.85 ± 0.24	890.19 ± 0.25	885.53 ± 0.26	880.87 ± 0.27	876.21 ± 0.28	871.55 ± 0.29
x1 = 0.7924	900.56 ± 0.26	895.87 ± 0.25	891.18 ± 0.26	886.49 ± 0.27	881.8 ± 0.28	877.12 ± 0.29	872.44 ± 0.3
x1 = 0.8587	901.6 ± 0.26	896.88 ± 0.25	892.16 ± 0.26	887.45 ± 0.27	882.74 ± 0.28	878.03 ± 0.29	873.32 ± 0.3
x1 = 0.9298	902.64 ± 0.27	897.9 ± 0.26	893.16 ± 0.27	888.42 ± 0.27	883.69 ± 0.28	878.96 ± 0.29	874.23 ± 0.3
x1 = 1	903.6 ± 0.27	898.85 ± 0.26	894.1 ± 0.27	889.35 ± 0.28	884.6 ± 0.29	879.85 ± 0.3	875.1 ± 0.31
